Data reported in patent US6632789B1, “Methods for modulating T cell responses by manipulating intracellular signal transduction” (The United States of America as represented by the …, priority 1994, dated 2003).
Like-named read-outs stand apart in the source and are kept apart here.

Tests used:
[1] = system: CD28-mediated calcium flux in Jurkat cells; test: Anti-CD28 antibody-induced calcium flux in Jurkat cells; type: cell-based; conditions: Jurkat cells stimulated with anti-CD28 antibody; FIG. 4
Procedure: In this example, the effect of pharmacological inhibitors on calcium flux in Jurkat cells induced by anti-CD28 antibodies was examined. The pharmacological inhibitors studied were wortmannin, which inhibits the activity of PI3K, and herbimycin A, which inhibits the activity of protein tyrosine kinases. Jurkat cells were stimulated with an anti-CD28 antibody, either in medium alone or in the presence of wortmannin or herbimycin A, and the mean calcium concentration (nM) in the cells was measured over several minutes following stimulation.

[2] = system: CD28-induced IL-2 production; conditions: cited from earlier work
[3] = system: human T cells; test: IL-2 production by human T cells after 24 hours (ELISA of supernatants); type: cell-based; conditions: for IC50: T-cell
Procedure: In this example, the effect of an inhibitor of phosphatidylinositol 3-kinase on CD28-dependent production of interleukin-2 by T cells was examined. In a first series of experiments, the effect of T cell stimulation through CD28, in conjunction with stimulation through CD3, on IL-2 production was assessed in the absence of wortmannin. Highly purified human peripheral blood T cells were incubated for 24 hours with an immobilized anti-CD3 antibody (OKT3) alone or together with either an anti-CD28 antibody (9.3) or mitomycin C-treated CHO cells, either untransfected or transfected to express B7-1 or B7-2. Increasing numbers of CHO cells were tested (0.5×10^6 to 4×10^6). After culture for 24 hours, the culture supernatants were assayed for IL-2 production by ELISA by standard techniques.
In a next series of experiments, resting human T cells were stimulated with either: 1) immobilized OKT3+CHO-B7-1, 2) immobilized OKT3+CHO-B7-2, 3) immobilized OKT3+CHO-B7-1+B7-2, 4) PMA+CHO-B7-1 or 5) PMA+B7-2. Stimulation of T cells was performed in media alone or in media containing wortmannin at concentrations between 1 nM and 1 μM. Twenty-four hours following culture, the supernatants were assayed for IL-2 production by ELISA. […] Wortmannin-mediated inhibition of IL-2 production was dose dependent. The ID50 for inhibition of B7-2 -mediated stimulation was approximately 10 nM. The ID50 for inhibition of B7-1-mediated stimulation was between 10 and 100 nM.

## CO[C@H]1[C@@H](OC)C[C@H](C)[C@@H](OC)C2=CC(=O)C=C(NC(=O)/C(C)=C/C=C\[C@H](OC)[C@@H](OC(N)=O)/C(C)=C/[C@@H]1C)C2=O [herbimycin A]
[1]
  inhibition of CD28 antibody-induced calcium flux: capable of inhibiting
[2]
  inhibition of CD28-induced IL-2 production: can inhibit

## COC[C@H]1OC(=O)c2coc3c2[C@@]1(C)C1=C(C3=O)[C@@H]2CCC(=O)[C@@]2(C)C[C@H]1OC(C)=O [wortmannin]
[3]; resting human T cells, immobilized OKT3+CHO-B7-1, 24 hours, read-out: ID50 for inhibition of B7-1-mediated stimulation of IL-2 production
  IC50: 10 to 100 nM
[3]; resting human T cells, immobilized OKT3+CHO-B7-2, 24 hours, read-out: ID50 for inhibition of B7-2-mediated stimulation of IL-2 production
  IC50: ~10 nM
[3]; resting human T cells, at the ID50 doses (10 to 100 nM)
  toxicity to the cells: not generally toxic
[3]; resting human T cells, wortmannin at concentrations as high as 1 μM
  inhibition of IL-2 production stimulated by PMA together with membrane-bound B7-1 or B7-2: not inhibited

## OKT3: immobilized anti-CD3 antibody (OKT3)
[3]; purified human peripheral blood T cells, 24 hours, immobilized OKT3 alone, FIG. 6
  IL-2 production: did not produce IL-2
